The results in this text go back to patent US8304447B2, “2-acylaminopropoanol-type glucosylceramide synthase inhibitors” (Genzyme Corporation, priority 2007, dated 2012).

This test concerns GM3. The experiment in a line: GM3 Elisa assay. The format is cell-based. As to conditions: B16-FO cells, read-out: IC50_uM_Mean. In a few lines: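 Murine B16-FO melanoma cells attached 6 h on collagen, then exposed to compounds for 2 days at 37 °C. After formaldehyde fixation, cell-surface GM3 (NeuAc) was detected by anti-GM3 IgM and peroxidase anti-mouse IgM with Quantablu fluorescence (Ex 325/Em 420).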

Where [1] appears, read: 48 h, Table 1, 2 days incubation.
The mark [2] stands for this setting: 48 h, Table 2, 2 days incubation.

SMILES strings stand for the structures. pIC50: −log10 of the molar value. Like-named read-outs stand apart in the source and are kept apart here. Some results are limits rather than exact numbers.

Take `COc1ccc(OCCCC(=O)N[C@H](CN2CCCC2)[C@H](O)c2ccc3c(c2)OCCO3)cc1` [Compound 197, N-((1R,2R)-1-(2,3-dihydrobenzo[β][1,4]dioxin-6-yl)-1-hydroxy-3-(pyrrolidin-1-yl)propan-2-yl)-4-(4-methoxyphenoxy)butanamide (2S,3S)-2,3-dihydroxysuccinate]: the pIC50 under setting [1] is ≥ 7.00.

As for `COc1ccc(C(=O)CCCC(=O)N[C@H](CN2CCCC2)[C@H](O)c2ccc(C)c(F)c2)cc1` [Compound 346], the pIC50 (Table 3 (IC 50 Values)) is 6.00 to 7.00. On the same count and under the same terms, the same measure for `COc1ccc(C(=O)CCCCC(=O)N[C@H](CN2CCCC2)[C@H](O)c2ccc(OCCOc3c(C)cccc3C)cc2)cc1` [Compound 373]: ≥ 7.00; for `COc1ccc(OCCC(=O)N[C@H](CN2CCCC2)[C@H](O)c2ccc(O)cc2)cc1` [Compound 712]: 6.00 to 7.00. The same measure, in the same setting: the value for `COc1ccc(OCCCC(=O)N[C@H](CN2CC[C@@H](F)C2)[C@H](O)c2ccc(OC(C)C)cc2)cc1` [Compound 445] was 6.00 to 7.00. For the compound `COc1ccc([C@@H](OC(=O)CCOc2ccc(C)cc2)[C@@H](CN2CCCC2)NC(=O)CCOc2ccc(C)cc2)cc1` [Compound 248], the pIC50 under setting [2] was 6.00 to 7.00.

Regarding `O=C(Cc1ccc(-c2cccc(Cl)c2)cc1)N[C@@H](CN1CCCC1)[C@@H](O)c1ccc2c(c1)OCCO2` [Compound 65, 2-(3′-chlorobiphenyl-4-yl)-N-((1R,2R)-1-(2,3-dihydrobenzo[β][1,4]dioxin-6-yl)-1-hydroxy-3-(pyrrolidin-1-yl)propan-2-yl)acetamide], the pIC50 under setting [1] was ≥ 7.00.

In the case of `O=C(CCCCCNS(=O)(=O)c1ccc2c(c1)OCCO2)N[C@H](CN1CCCC1)[C@H](O)c1ccc2c(c1)OCCO2` [Compound 102, N-((1R,2R)-1-(2,3-dihydrobenzo[β][1,4]dioxin-6-yl)-1-hydroxy-3-(pyrrolidin-1-yl)propan-2-yl)-6-(2,3-dihydrobenzo[β][1,4]dioxine-6-sulfonamido)hexanamide], the pIC50 under setting [1] was 5.52 to 6.00. As to `COc1ccc(S(=O)(=O)CCCCCC(=O)N[C@H](CN2CC[C@@H](F)C2)[C@H](O)c2ccc3c(c2)OCCO3)cc1` [Compound 564], under “Table 3 (IC 50 Values)”, the pIC50 is 6.00 to 7.00.

On to `COc1ccc(CCNC(=O)N[C@H](CN2CCCC2)[C@H](O)c2ccc3c(c2)OCCO3)cc1` [Compound 480], for which, where the note is “Table 3 (IC 50 Values)”, the pIC50 was 5.52 to 6.00. As to `COc1ccc(OCCC(=O)N[C@H](CN2CCCC2)[C@H](O)c2ccc(OC)cc2)cc1` [Compound 262, N-[2-Hydroxy-2-(4-methoxy-phenyl)-1-pyrrolidin-1-ylmethyl-ethyl]-3-(4-methoxy-phenoxy)-propionamide], the pIC50 under setting [2] was ≥ 7.00. In the case of `COCCOc1ccc(C(=O)CCCCC(=O)N[C@H](CN2CC[C@H](O)C2)[C@H](O)c2ccc(OCCCCF)cc2)cc1` [Compound 455], the pIC50 (Table 3 (IC 50 Values)) is ≥ 7.00.

With `Cc1ccc(C(=O)CCC(=O)N[C@H](CN2CCCC2)[C@H](O)c2ccc3c(c2)CCCC3)cc1` [Compound 264], the pIC50 under setting [2] is ≥ 7.00. Take `COc1ccc(OCCC(=O)N[C@H](CN2[C@H](C)CC[C@H]2C)[C@H](O)c2ccc3c(c2)OCCO3)cc1` [Compound 550]: the pIC50 (Table 3 (IC 50 Values)) is 5.00 to 5.52. Same read-out and setting: the same measure for `COc1ccc(C(=O)CCCCC(=O)N[C@H](CN2CCCC2)[C@H](O)c2ccc(OCCOc3ccccc3)cc2)cc1` [Compound 418]: ≥ 7.00. Regarding `O=C(CCCCCS(=O)(=O)C1CCCCC1)N[C@H](CN1CC[C@@H](F)C1)[C@H](O)c1ccc(OCc2ccccc2)cc1` [Compound 578], the pIC50 (Table 3 (IC 50 Values)) was ≥ 7.00.

Turning to `COc1ccc(OCCC(=O)N(CC(=O)c2ccc(OC)cc2)[C@H](CN2CCCC2)[C@H](O)c2ccc(O)cc2)cc1` [Compound 715], the pIC50 (Table 3 (IC 50 Values)) is 5.00 to 5.52.

On to `CCCCCCCC(=O)N[C@H](CN1CCCC1)[C@H](O)/C=C/c1ccccc1` [Compound 397], for which the pIC50 (Table 3 (IC 50 Values)) is 5.00 to 5.52. As for `COc1ccc(C(=O)CCCCCCC(=O)N[C@H](CN2CCCC2)[C@H](O)c2ccc3c(c2)OCCO3)cc1` [Compound 144, N-((1R,2R)-1-(2,3-dihydrobenzo[β][1,4]dioxin-6-yl)-1-hydroxy-3-(pyrrolidin-1-yl)propan-2-yl)-8-(4-methoxyphenyl)-8-oxooctanamide], the pIC50 under setting [1] is ≥ 7.00. Consider `COc1ccc(OCCC(=O)N[C@H](CN2CCCC2)[C@H](O)c2ccc3c(c2)OCO3)cc1` [Compound 259], for which, under setting [2], the pIC50 was ≥ 7.00. As to `COc1ccc(C(=O)CCCCC(=O)N[C@H](CN2CCCC2)[C@H](O)c2ccc(OCCCCF)cc2)cc1` [Compound 435], the pIC50 (Table 3 (IC 50 Values)) is ≥ 7.00.

For the compound `CCCCCCCC(=O)N[C@H](CN1CCC[C@@H]1COC)[C@H](O)c1ccc2c(c1)OCCO2` [Compound 540], the pIC50 (Table 3 (IC 50 Values)) was 5.00 to 5.52.

Take `O=C(CCc1ccc(C(F)(F)F)cc1)N[C@H](CN1CCCC1)[C@H](O)c1ccc2c(c1)OCCO2` [Compound 96, N-((1R,2R)-1-(2,3-dihydrobenzo[β][1,4]dioxin-6-yl)-1-hydroxy-3-(pyrrolidin-1-yl)propan-2-yl)-3-(4-(trifluoromethyl)phenyl)propanamide]: the pIC50 under setting [1] was ≥ 7.00. Consider `COc1ccc(C(=O)CCCCCC(=O)N[C@H](CNC2CCC2)[C@H](O)c2ccc3c(c2)OCCO3)cc1` [Compound 460], for which the pIC50 (Table 3 (IC 50 Values)) was 5.52 to 6.00. Consider `COc1ccc(CNC(=O)N[C@H](CN2CC[C@H](O)C2)[C@H](O)c2ccc(OCCCCF)cc2)cc1` [Compound 498], for which the pIC50 (Table 3 (IC 50 Values)) is ≥ 7.00. On to `COc1ccc(C(=O)CCCCCC(=O)N[C@H](CN2CCCC2)[C@H](O)c2ccc(Cl)s2)cc1` [Compound 358], for which the pIC50 (Table 3 (IC 50 Values)) is ≥ 7.00. For the compound `COc1ccc([C@@H](O)[C@@H](CO)NC(=O)OCc2ccccc2)cc1F` [Compound 482], where the note is “Table 3 (IC 50 Values)”, the pIC50 is 5.00 to 5.52.

Take `O=C(Cc1ccc(OC(F)(F)F)cc1)N[C@H](CN1CCCC1)[C@H](O)c1ccc2c(c1)OCCO2` [Compound 103, N-((1R,2R)-1-(2,3-dihydrobenzo[β][1,4]dioxin-6-yl)-1-hydroxy-3-(pyrrolidin-1-yl)propan-2-yl)-2-(4-(trifluoromethoxy)phenyl)acetamide]: the pIC50 under setting [1] is ≥ 7.00. Same read-out and setting: the same measure for `O=C(CCCc1nc2ccccc2s1)NC(CN1CCCC1)[C@H](O)c1ccc2c(c1)OCCO2` (stereo partly drawn) [Compound 101, 4-(benzo[d]thiazol-2-yl)-N-((1R,2R)-1-(2,3-dihydrobenzo[β][1,4]dioxin-6-yl)-1-hydroxy-3-(pyrrolidin-1-yl)propan-2-yl)butanamide]: ≥ 7.00. For the compound `Cc1ccc(OCCC(=O)N[C@H](CN2CC[C@@H](F)C2)[C@H](O)c2ccc(OC(C)C)cc2)cc1` [Compound 448], under “Table 3 (IC 50 Values)”, the pIC50 was 6.00 to 7.00. As for `O=C(CCCCS(=O)(=O)C1CCCCC1)N[C@H](CN1CC[C@@H](F)C1)[C@H](O)c1ccc(OCc2ccccc2)cc1` [Compound 572], the pIC50 (Table 3 (IC 50 Values)) was 6.00 to 7.00.

As to `CC(=O)CCCCCC(=O)N[C@H](CN1CCCC1)[C@H](O)c1ccc(OC(F)(F)F)cc1` [Compound 665], under “Table 3 (IC 50 Values)”, the pIC50 was 5.00 to 5.52.

For the compound `CCCCCCCCCCCCCCCC(=O)N[C@H](CN(C)C1CCCC1)[C@@H](O)c1ccc2c(c1)OCCO2` [Compound 685], under “Table 3 (IC 50 Values)”, the pIC50 was 5.00 to 5.52. On the same count and under the same terms, the value for `CCCCOc1ccc(C(CN2CCCC2)NC(=O)CCCCC(=O)c2ccc(OC)cc2)cc1` (stereo not shown) [Compound 588] was 5.00 to 5.52; that for `CCCCCCCC(=O)N[C@H](CN1CCCC1(C)C)[C@H](O)c1ccc2c(c1)OCCO2` [Compound 553] was 5.00 to 5.52. On to `COc1ccc(OCCC(=O)N[C@H](CN2CCCCC2)[C@H](O)c2ccc3c(c2)OCCO3)cc1` [Compound 261, N-((1R,2R)-1-(2,3-dihydrobenzo[β][1,4]dioxin-6-yl)-1-hydroxy-3-(piperidin-1-yl)propan-2-yl)-3-(4-methoxyphenoxy)propanamide], for which, under setting [2], the pIC50 was 6.00 to 7.00. As to `O=C(CCCCCC(=O)C1CC1)N[C@H](CN1CCCC1)[C@H](O)c1ccc2c(c1)OCCO2` [Compound 619], the pIC50 (Table 3 (IC 50 Values)) is 5.52 to 6.00. Take `COc1ccc(C(=O)CCCC(=O)N[C@H](CN2CC[C@H](O)C2)[C@H](O)c2ccc(OCCCCF)cc2)cc1` [Compound 500]: the pIC50 (Table 3 (IC 50 Values)) is ≥ 7.00. The same measure, in the same setting: the value for `O=C(CCCOc1ccc(F)cc1)N[C@@H](CN1C2CCC1CC2)C(O)c1ccc2c(c1)OCCO2` (stereo partly shown) [Compound 472] was 6.00 to 7.00; that for `COc1ccc(C(=O)CCCCC(=O)N[C@H](CN2CCCC2)[C@H](O)c2ccc(-c3ccccc3)cc2)cc1` [Compound 694] was 6.00 to 7.00; that for `CC(C)Oc1ccc([C@@H](O)[C@@H](CN2CCC(F)C2)NC(=O)NCc2ccc(Cl)cc2)cc1` (stereo partly shown) [Compound 726] was 6.00 to 7.00. Same read-out and setting: the value for `COc1ccc(OCCC(=O)N[C@H](CN2CC(O)C2)[C@H](O)c2ccc3c(c2)OCCO3)cc1` [Compound 601] was 5.00 to 5.52; that for `CC(O)(CCCCCC(=O)N[C@H](CN1CCCC1)[C@H](O)c1ccc2c(c1)OCCO2)C1CCCC1` (stereo partly shown) [Compound 633] was 6.00 to 7.00; that for `CCCCCCCC(=O)N[C@H](CCN1CCCC1)[C@H](O)c1ccc2c(c1)OCCO2` [Compound 687] was 5.00 to 5.52.

Regarding `CCCCCCCC(=O)N[C@H](CN1CCCC1)[C@H](O)c1cc(OC)c2c(c1)OCCO2` [Compound 319], the pIC50 under setting [2] was 6.00 to 7.00. Regarding `O=C(CCOc1ccccc1F)N[C@H](CN1CCCC1)[C@H](O)c1ccc2c(c1)OCCO2` [Compound 60, N-((1R,2R)-1-(2,3-dihydrobenzo[β][1,4]dioxin-6-yl)-1-hydroxy-3-(pyrrolidin-1-yl)propan-2-yl)-3-(2-fluorophenoxy)propanamide], the pIC50 under setting [1] is ≥ 7.00. Regarding `O=C(N[C@H](CO)[C@H](O)c1ccc2c(c1)OC(F)(F)O2)OCc1ccccc1` [Compound 406], the pIC50 (Table 3 (IC 50 Values)) was 5.00 to 5.52. Take `CC(C)Oc1ccc(C(=O)CCC(=O)N[C@H](CN2CCCC2)[C@@H](O)c2ccc3c(c2)OCCO3)cc1` [Compound 162, N-((1R,2R)-1-(2,3-dihydrobenzo[β][1,4]dioxin-6-yl)-1-hydroxy-3-(pyrrolidin-1-yl)propan-2-yl)-4-(4-isopropoxyphenyl)-4-oxobutanamide]: under setting [1], the pIC50 is ≥ 7.00. Take `O=C(CCCN1Cc2ccccc2C1=O)N[C@H](CN1CCCC1)[C@H](O)c1ccc2c(c1)OCCO2` [Compound 485]: the pIC50 (Table 3 (IC 50 Values)) was 5.00 to 5.52.
